Columns and labels:
[1] = In vitro metabolic stability in rat liver microsomes (Example 34); assay type: in vitro ADME, Sprague Dawley rat; details: 1 μM, predicted hepatic extraction ratio
Method: In vitro metabolic stabilities were studied at a concentration of 1 μM in the presence of liver microsomes and isolated hepatocytes.
A 100 mM potassium phosphate assay buffer solution (KPB) was prepared as follows. Both KH2PO4 and K2HPO4 were dissolved separately in reagent grade water resulting in final concentrations 100 mM. A 75:25 mixture v/v of K2HPO4:KH2PO4 was prepared and the pH of the solution was adjusted to 7.4 using diluted HCl or diluted NaOH solutions. A stock solution of test compound was prepared at 10 mM (active compound) in DMSO. The stock solution was diluted immediately before use to 2.5 μM using the KPB solution to create the working standard. All test compounds were completely soluble in DMSO by visual inspection at room temperature. […]
Data were acquired and peak areas were calculated for test compounds and the internal standard using Analyst 1.6.1 software (Sciex). […]
All calculations were performed using BioAssay Enterprise. The mean peak area ratios were calculated by averaging the peak area ratios (n=2) of test compound and the internal standard for each sample. Percent remaining was calculated by determining the ratio of the peak area ratio at each time point to the peak area ratio of the time-zero samples. The rate of loss of test compound (km) was determined by linear regression of—1n(f(t)) versus time. […] The t½ was determined dividing 1n(2) by km. […]

[2] = molecular target: T1, MDR1 (P-gp) (Homo sapiens, UniProt P08183); test: MDR1 efflux in MDR1 transfected LLC-PK1 cells (Example 35); assay type: in vitro ADME; details: pig, MDR1 transfected LLC-PK1 monolayers, read-out: MDRI efflux ratio
T1 construct: expressed in transfected cells; host or cells: LLC-PK1 cells
T1 sequence (P08183 whole entry): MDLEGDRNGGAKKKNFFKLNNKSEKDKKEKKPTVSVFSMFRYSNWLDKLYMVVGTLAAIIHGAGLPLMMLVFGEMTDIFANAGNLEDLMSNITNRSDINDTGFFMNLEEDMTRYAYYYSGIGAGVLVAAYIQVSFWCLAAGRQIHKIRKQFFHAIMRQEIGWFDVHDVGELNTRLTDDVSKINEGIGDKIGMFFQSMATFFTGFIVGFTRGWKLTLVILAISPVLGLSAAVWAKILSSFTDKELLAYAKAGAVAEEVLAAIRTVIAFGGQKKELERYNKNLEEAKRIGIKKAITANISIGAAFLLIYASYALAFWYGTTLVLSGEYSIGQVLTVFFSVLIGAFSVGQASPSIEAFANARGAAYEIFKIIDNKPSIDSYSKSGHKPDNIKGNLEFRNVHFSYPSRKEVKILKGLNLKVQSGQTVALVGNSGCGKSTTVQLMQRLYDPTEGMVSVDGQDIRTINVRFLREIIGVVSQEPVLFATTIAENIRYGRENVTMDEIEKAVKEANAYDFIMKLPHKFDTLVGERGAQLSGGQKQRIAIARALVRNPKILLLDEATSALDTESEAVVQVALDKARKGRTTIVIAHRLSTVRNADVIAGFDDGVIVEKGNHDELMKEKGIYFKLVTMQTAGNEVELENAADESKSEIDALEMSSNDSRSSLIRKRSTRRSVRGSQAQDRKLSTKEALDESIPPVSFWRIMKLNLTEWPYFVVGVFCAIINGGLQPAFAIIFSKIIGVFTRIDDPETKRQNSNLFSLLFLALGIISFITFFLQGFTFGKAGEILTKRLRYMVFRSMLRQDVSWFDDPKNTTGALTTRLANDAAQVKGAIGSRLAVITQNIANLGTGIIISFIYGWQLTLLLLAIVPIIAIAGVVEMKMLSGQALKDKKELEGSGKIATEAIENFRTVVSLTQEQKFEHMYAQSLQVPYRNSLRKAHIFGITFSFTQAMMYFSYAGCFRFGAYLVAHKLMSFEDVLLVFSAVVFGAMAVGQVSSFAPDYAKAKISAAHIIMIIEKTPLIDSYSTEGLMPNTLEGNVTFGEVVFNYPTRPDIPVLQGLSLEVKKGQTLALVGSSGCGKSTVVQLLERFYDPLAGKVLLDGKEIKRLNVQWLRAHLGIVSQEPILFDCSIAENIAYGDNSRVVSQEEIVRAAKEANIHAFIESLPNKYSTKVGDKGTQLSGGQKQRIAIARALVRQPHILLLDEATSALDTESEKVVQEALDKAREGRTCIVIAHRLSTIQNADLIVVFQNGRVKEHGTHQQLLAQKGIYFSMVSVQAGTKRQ
Method: Both LLC-PK1 and MDR1 transfected LLC-PK1 cells were cultured and plated according to manufacturer's recommendations with the exception that the passage media contained only 2% fetal bovine serum so as to extend passage time out to seven days.
Both positive and negative controls were used to assess functionality of P-gp efflux in the assay. Stock solutions for assay controls and the test article were prepared in DMSO for a final test concentrations of 10 μM. Final organic concentration in the assay was 1%. All dosing solutions contained 10 μM lucifer yellow to monitor LLC-PK1 cell monolayer integrity.
For the apical to basolateral determination (A to B), 75 μL of the test article in transport buffer were added to the apical side of the individual transwells and 250 μL of basolateral media, without compound or lucifer yellow, were added to each well. […] The plates were read using a Molecular Devices (Sunnyvale, Calif.) Gemini Fluorometer to evaluate the lucifer yellow concentrations at excitation/emission wavelengths of 425/535 nm. […] The plates were sealed and the contents of each well analyzed by LC-MS/MS. The compound concentrations were determined from the ratio of the peak areas of the compound to the internal standard (labetalol) in comparison to the dosing solution.
Permeability (Papp) was calculated in BioAssay v. […]

Compound | Rat Microsome Clearance (% ER) [1] | efflux ratio at 2 h, 10 μM [2]
C[C@@H]1CCc2ncc(F)cc2[C@H]2CCCN2c2ccn3ncc(c3n2)C(=O)N1 [Formula I] | 51 % ER | 14
C[C@H]1CCc2ncc(F)cc2[C@H]2CCCN2c2ccn3ncc(c3n2)C(=O)N1 [formula I′] | 77 % ER | 5

Source: US11091486B2, “Process for the preparation of pyrazolo[1,5-a]pyrimidines and salts thereof” (Array BioPharma Inc., priority 2016, dated 2021)
